Calls of active or inactive are those of the source. Some results are limits rather than exact numbers.

Test [1] in a line: non-specific 3'UTR reporter inhibition in Clone20-Shn3RL – cell-based, Renilla luciferase, cherry-picked, counter-screen for Shn3 inhibitor project, dose response (AID 624133). The class given is functional. On the technique in general: The purpose of a counterscreen is to sort out artefacts and off-target activity.
A short description of test [2]: Shn3 3'UTR reporter signal decrease – cell-based, Clone20 osteoblasts, firefly luciferase, cherry-pick, set 2, Schnurri-3 inhibitor project, dose response (AID 720490).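 Note: actives lower the luminescence signal as inhibitors.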 The class given is functional.
The next test deals with INS1. Briefly: INS-1E survival protection against cytokine death – cell-based, luminescence, retest, dose response (AID 449756).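 Note: cell death triggered by IL-1 beta plus TNF-alpha plus IFN-gamma mixture; protective hits raise ATP signal compared with cytokine alone wells.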 It is filed as functional. The following applies: Rattus norvegicus.
The next test concerns Jurkat. In words: blockers of NF-kB activation in T cells – Jurkat, luciferase reporter, luminescence, B- and T-cell, dose response (AID 489004).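 Note: NF-kB luciferase reporter Jurkat cells stimulated with PMA plus ionomycin.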 The class given is functional, cell-based. The following applies: Homo sapiens.
Test [3] in a line: decrease of insulin promoter-GFP reporter – imaging, high-content screening, mouse beta cells (AID 1628). The class given is functional. The following applies: MIN6.
Test [4] is described as follows: loss of viability in HepG2 cells – cell-based, CellTiter-Glo, cherry-picked, cytotoxicity control for Shn3 inhibitor project, dose response (AID 624134). It is filed as functional. In general terms: ATP-based viability assays read luminescence as a measure of living cells.
Test [5] can be described thus: reduction of Shn3 3'UTR-driven luciferase in osteoblasts – cell-based, Clone20 osteoblasts, firefly luciferase, cherry-picked, dose response (AID 624132).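 Note: firefly luciferase luminescence from reporter carrying the Shn3 3'UTR in osteoblasts.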 The class given is functional.
Test [6] is described as follows: HEK-293T viability loss, compound-treated – cell-based, uHTS hits, cytotoxicity control for B/T-cell NF-kB inhibitor project, dose response (AID 489019).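 Note: IC50 reflects cytotoxicity as loss of cell viability.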 It is filed as functional.
Test [7] in a line: MIN6 cell viability loss – mouse insulinoma, cytotoxicity control, dose response (AID 2122).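 Note: confirmatory high-throughput counterscreen run to flag cytotoxic compounds.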 The class given is functional.
Test [8] deals with COUP transcription factor 2 (Homo sapiens, UniProt P24468). In words: Luminescence-based cell-based high throughput dose response assay to identify inhibitors of COUP-TFII (NR2F2). The class given is functional.
The nature of test [9]: fluconazole-exposed Candida albicans growth modulators – fluorescence, retest, confirmation (AID 2467). It is filed as functional, cell-based.
The target in test [10] is T1, Serine/threonine-protein phosphatase (Candida dubliniensis (strain CD36 / CBS 7987 / NCPF 3949 / NRRLY-17841) (Yeast), UniProt B9W6M3).
T1 sequence (B9W6M3 whole entry): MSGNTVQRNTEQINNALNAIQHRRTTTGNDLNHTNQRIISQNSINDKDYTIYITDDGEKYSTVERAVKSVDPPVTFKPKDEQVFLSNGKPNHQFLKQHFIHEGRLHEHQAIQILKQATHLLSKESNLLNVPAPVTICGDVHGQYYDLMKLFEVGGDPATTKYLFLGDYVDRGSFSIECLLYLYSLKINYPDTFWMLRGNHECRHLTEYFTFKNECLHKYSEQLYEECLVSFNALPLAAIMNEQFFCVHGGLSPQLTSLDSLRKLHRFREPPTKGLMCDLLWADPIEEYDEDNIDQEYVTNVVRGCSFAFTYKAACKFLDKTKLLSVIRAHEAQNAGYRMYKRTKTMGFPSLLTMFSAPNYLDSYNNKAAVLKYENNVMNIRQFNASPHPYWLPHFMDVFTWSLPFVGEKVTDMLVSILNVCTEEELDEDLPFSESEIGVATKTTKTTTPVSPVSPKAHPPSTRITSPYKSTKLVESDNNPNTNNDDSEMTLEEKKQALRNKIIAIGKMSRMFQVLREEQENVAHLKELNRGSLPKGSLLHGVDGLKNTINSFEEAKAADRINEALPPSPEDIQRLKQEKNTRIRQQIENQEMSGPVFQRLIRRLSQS
In words: Fluorescence Cell-Based Secondary Assay to Identify Inhibitors of Calcineurin. [Related pubchem assays (depositor defined):AID1979, AID2007]. It is filed as functional.

Test [11] deals with ATP-dependent molecular chaperone HSP82 (Candida albicans (strain WO-1) (Yeast), UniProt C4YTQ8). In words: steroid-induced GRE reporter decrease in yeast – S. cerevisiae, luminescence, Hsp90 inhibitor project, dose response (AID 2400).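 Note: beta-galactosidase luminescence from glucocorticoid response element reporter as proxy for Hsp90 function; inhibitor potency where signal loss means Hsp90 inhibition.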 It is filed as functional, cell-based.
The target in test [12] is T1, Serine/threonine-protein phosphatase. In words: blockers of CaCl2-induced CDRE-lacZ signaling – S. cerevisiae, luminescence, secondary, dose response (AID 2388).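 Note: yeast reporter cells carrying a calcineurin-responsive lacZ construct stimulated with calcium chloride; luminescent beta-galactosidase reporter signal in whole cells rather than isolated phosphatase activity; potency for inhibition where a drop in reporter signal means calcineurin blockade.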 The class given is functional, cell-based.
The nature of test [13]: NIH-3T3 fibroblast cytotoxicity, dose response, cytotoxicity control, cell-based, fluorescence, Alamar Blue, secondary assay (AID 2327).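 Note: NIH-3T3 mouse fibroblasts cultured with fluconazole at 8 µg/mL.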 The class given is functional. A general note: Alamar Blue is a resazurin reagent that responds to reducing activity.
The target of test [14] is Nucleotide-binding oligomerization domain-containing protein 2 (Homo sapiens, UniProt Q9HC29). In words: inhibition of NOD2-driven NF-kB reporter – cell-based, luminescence, uHTS, HEK293 (AID 1566). The class given is functional.
For test [15], the system named is HEK293. Briefly: NOD2 signaling inhibitors in MDP-stimulated cells, cell-based, uHTS, luminescence (AID 2001). The class given is functional. The following applies: Homo sapiens.
In test [16] the test system is HEK293. Briefly: inhibition of NOD1-driven NF-kB reporter – cell-based, luminescence, uHTS, primary screen (AID 1578). It is filed as functional. The following applies: Homo sapiens.
The test system of test [17] is HEK293. In words: cells. The class given is functional, cell-based. The following applies: Homo sapiens.
For test [18], the system named is HEK293. In words: cells. The class given is functional, cell-based. The following applies: Homo sapiens. The source holds these as a separate data set.
Test [19] deals with HEK293. Briefly: cells. The class given is functional, cell-based. Particulars: Homo sapiens. The source holds these as a separate data set.
A short description of test [20]: blockers of SFLLRN-triggered platelet ATP secretion – cell-based, human platelets, luminescence, dry powder, dose response (AID 493100). The class given is functional.
Test [21] can be described thus: SFLLRN-induced P-Selectin Platelet Surface Expression Measured in Cell-Based System Using Flow Cytometry - 2016-03_Inhibitor_Dose_DryPowder_Activity_Set3. [Related pubchem assays (depositor defined):AID1678]. The class given is functional.
The nature of test [22]: Luminescence Cell-Based Dose Response Follow up to Identify Inhibitors of Platelet Dense Granule Release. [Related pubchem assays (depositor defined):AID1663, AID1678, AID1889, AID2519]. The class given is functional.
A short description of test [23]: blockers of HIV-1 ZM109 envelope-driven cell-cell fusion – HeLa effector, CEM target cells, luciferase, cherry-pick, dose response (AID 652058).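 Note: luciferase signal from HIV-1 Env mediated cell-cell fusion of effector and target cells.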 The class given is functional, cell-based.
Test [24] in a line: HIV-1 AD8 envelope cell-cell fusion blockers – cherry-pick, dose response (AID 652062).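 Note: luciferase signal from cell-cell fusion driven by HIV-1 clade B AD8 Env; potency is for inhibitors of fusion seen as a drop in luminescence.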 The class given is functional, cell-based.
Test [25] in a line: off-target signal loss in HeLa-CEM21 co-culture – HeLa F-luc CTL cells, cherry-picked, counter-screen for HIV-1 Env fusion inhibitor project, dose response (AID 652040).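 Note: potency for signal decrease marking cytotoxic or nonspecific inhibition.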 It is filed as functional, cell-based.
Test [26] deals with HEK293. In words: cells. The following applies: Homo sapiens.
A short description of test [27]: blockers of HIV-1 envelope-mediated cell-cell fusion – cherry-pick, dose response (AID 652057). It is filed as functional, cell-based.
Test [28] deals with HEK293. Briefly: cells. Particulars: Homo sapiens. This is another data set of the same source.

Sequence of Nucleotide-binding oligomerization domain-containing protein 2 (Q9HC29 whole entry, the tested form may be a part): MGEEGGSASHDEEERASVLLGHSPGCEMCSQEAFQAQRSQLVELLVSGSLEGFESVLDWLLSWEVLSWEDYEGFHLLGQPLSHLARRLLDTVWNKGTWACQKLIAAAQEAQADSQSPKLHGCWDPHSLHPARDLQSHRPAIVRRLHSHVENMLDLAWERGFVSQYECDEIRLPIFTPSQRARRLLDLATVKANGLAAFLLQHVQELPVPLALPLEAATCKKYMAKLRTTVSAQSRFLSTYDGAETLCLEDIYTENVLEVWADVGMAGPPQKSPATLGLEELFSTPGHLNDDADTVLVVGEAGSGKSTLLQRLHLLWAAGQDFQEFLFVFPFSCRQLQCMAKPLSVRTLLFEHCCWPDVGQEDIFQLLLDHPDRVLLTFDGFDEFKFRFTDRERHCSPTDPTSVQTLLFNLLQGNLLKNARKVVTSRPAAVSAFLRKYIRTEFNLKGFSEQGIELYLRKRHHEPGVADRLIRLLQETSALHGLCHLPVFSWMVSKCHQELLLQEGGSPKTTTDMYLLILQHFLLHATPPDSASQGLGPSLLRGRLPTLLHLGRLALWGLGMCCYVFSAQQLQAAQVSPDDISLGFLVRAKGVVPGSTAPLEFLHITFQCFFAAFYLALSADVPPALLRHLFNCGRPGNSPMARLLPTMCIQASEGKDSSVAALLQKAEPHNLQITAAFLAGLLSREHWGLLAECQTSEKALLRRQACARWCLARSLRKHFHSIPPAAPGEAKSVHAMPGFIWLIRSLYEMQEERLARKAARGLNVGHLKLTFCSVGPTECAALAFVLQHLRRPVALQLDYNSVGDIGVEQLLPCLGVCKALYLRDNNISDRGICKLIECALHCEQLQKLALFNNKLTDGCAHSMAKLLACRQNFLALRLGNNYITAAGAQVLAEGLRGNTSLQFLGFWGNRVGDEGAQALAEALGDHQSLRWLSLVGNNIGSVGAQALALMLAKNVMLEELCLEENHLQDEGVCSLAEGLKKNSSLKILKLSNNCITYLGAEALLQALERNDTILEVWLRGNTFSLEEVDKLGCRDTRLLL
Sequence of ATP-dependent molecular chaperone HSP82 (C4YTQ8 whole entry): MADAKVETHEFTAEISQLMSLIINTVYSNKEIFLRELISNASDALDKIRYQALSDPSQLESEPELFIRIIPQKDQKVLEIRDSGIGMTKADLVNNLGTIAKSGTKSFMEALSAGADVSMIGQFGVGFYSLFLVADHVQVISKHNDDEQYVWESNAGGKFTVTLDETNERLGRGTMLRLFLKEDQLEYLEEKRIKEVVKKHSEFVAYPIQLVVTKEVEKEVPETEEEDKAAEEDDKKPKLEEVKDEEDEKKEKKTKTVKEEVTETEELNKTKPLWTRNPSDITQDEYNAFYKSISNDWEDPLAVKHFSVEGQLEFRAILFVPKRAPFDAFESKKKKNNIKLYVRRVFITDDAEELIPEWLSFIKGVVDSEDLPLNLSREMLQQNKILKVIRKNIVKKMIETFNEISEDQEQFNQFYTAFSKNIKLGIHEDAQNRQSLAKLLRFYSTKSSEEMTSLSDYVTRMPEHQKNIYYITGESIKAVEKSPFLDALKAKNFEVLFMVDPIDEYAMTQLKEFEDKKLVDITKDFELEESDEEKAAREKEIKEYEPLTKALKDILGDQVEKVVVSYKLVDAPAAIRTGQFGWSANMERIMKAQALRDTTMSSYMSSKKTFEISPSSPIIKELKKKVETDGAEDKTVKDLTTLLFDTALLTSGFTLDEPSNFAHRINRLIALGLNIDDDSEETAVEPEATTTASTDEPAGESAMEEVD
Sequence of COUP transcription factor 2 (P24468 whole entry): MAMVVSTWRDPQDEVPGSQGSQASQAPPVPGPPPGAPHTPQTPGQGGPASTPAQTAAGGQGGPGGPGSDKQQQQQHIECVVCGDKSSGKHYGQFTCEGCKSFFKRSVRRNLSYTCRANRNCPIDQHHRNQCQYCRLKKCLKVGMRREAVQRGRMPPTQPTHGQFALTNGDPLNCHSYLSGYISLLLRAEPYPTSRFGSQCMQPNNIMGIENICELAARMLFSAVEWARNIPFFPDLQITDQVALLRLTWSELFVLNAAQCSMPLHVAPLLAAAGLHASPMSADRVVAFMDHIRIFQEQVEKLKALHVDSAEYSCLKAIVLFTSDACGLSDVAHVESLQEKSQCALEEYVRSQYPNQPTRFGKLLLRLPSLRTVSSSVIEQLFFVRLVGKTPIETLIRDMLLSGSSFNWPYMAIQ

On to `Cn1nc(CC(=O)Nc2ccc3c(c2)OCCO3)c2ccccc2c1=O`, for which the AC50 (as a rule, the midpoint of the concentration-response curve, whichever way the signal moves) in test [1] was 3.62 µM (active); in test [2], 1.36 µM (active); in the test with INS1, 2.77 µM (active); in test [4], 55.8 µM (active); in [5], 0.899 µM (active). The IC50 (in general, the concentration that inhibits the measured activity by half) in the test with Jurkat was > 80 µM (inactive); in [3] it was 0.797 µM (active); in [6] it was > 80 µM (inactive); in test [7] it was 0.552 µM (active); in [8], 6.56 µM (active).
Turning to `COc1ccc(-n2nc(C(=O)NCC(=O)N3CCN(c4ccccc4)CC3)c3ccccc3c2=O)c(OC)c1`, the EC50 (as a rule, the concentration that produces a half-maximal response) in test [9] was 0.819 µM (active); in test [10], > 285 µM (inactive); in test [11], > 160 µM (inactive); in test [12], > 180 µM (inactive); in [13], > 160 µM (inactive).
For `CC(=O)c1ccc(Nc2nc3ccccc3nc2NS(=O)(=O)c2cccs2)cc1`, the figures for the EC50 (in test [14]; in the test with HEK293 [16]) were 6.47 µM (active) and 8.18 µM (active), respectively. Besides, the IC50 in the test with HEK293 [15] was 9.59 µM (active); in the test on HEK293 [17] it was > 20 µM (inactive); with HEK293 [18], > 20 µM (inactive); in the test with HEK293 [19] it was 15.6 µM (active).
Consider `COc1ccc(C(=O)Nc2cccc(NC(C)=O)c2)cc1`, for which the AC50 is 12.8 µM (active) in test [20] and 3.53 µM (active) in test [21]. For the same compound, the EC50 in test [22] is 3.96 µM (active).
On to `COc1ccc(Cl)cc1CC1(C)C(=O)Nc2ccc(S(=O)(=O)NC3CCCCC3)cc21` (stereo not given), for which the AC50 in test [23] is 0.768 µM (active); in test [24], 3.04 µM (active); in test [25], 1.07 µM (active); in test [27], 0.749 µM (active). The EC50 in the test with HEK293 [26] and in the test on HEK293 [28] was > 59.6 µM (inactive) in each case.

The values above are taken from ChEMBL document CHEMBL1201862, “PubChem BioAssay data set” (2004).
